These are literature values, as cited in US20220175673A1, “SURGICAL DEVICE” (Saint Anthony Biomedical, LLC, priority 2017, published 2022).

The test system of data set [1] is Veillonella. The settings on record: compared with other anaerobic bacteria.
The subject of data set [2] is Enterococcus, including E. faecalis and E. faecium. The following applies: vancomycin-susceptible and vancomycin-resistant strains.
The subject of data set [3] is keratinocytes.
The subject of data set [4] is CMV, HIV, HSV-1, HSV-2, influenza virus, parainfluenza virus, variola virus. The following applies: viruses with a lipid component in outer coat or an outer envelope.
The test system of data set [5] is Candida albicans, C. dubliniensis, C. glabrata, C. gullermondii, C. pseudotropicalis, C. krusei, C. lusitaniae, C. tropicalis.
Data set [6] relates to Epidermophyton occosum, Microsporum gypseum, M canis, Trichophyton mentagrophytes.
Data set [7] has as its system Streptococcus mutans, S. pyogenes, S. salivarius, S. sanguis. The settings on record: Gram-positive aerobic bacteria.
Data set [8] relates to Staphylococcus aureus, S. epidermidis, S. haemolyticus, S. hominis, S. simulans. The following applies: both oxacillin-resistant and oxacillin-susceptible staphylococci.
Data set [9] has as its system wound healing.
The subject of data set [10] is MDR isolates (MRSA, E. faecium, K pneumoniae, E. aerogenes, E. coli and A. baumani). The settings on record: 0.05% CHG, 1-minute exposure.

With `[H]/N=C(\N/C(=N/[H])NCCCCCCNC(=N)NC(=N)Nc1ccc(Cl)cc1)Nc1ccc(Cl)cc1` [Chlorhexidine, chlorhexidine], the activity result in [1] is reported as “less active”; in data set [2] it was “active”; in [5] it was “some activity”; in [6], “some activity”; in data set [7] it was “highly active”; in data set [8] it was “active”. Besides, the effect on keratinocytes result in data set [3] is reported as “cytotoxic effect”. Also, in [4], the antiviral activity result is on record as “appears to have antiviral activity”. Further, in [9], the “effect on wound healing” value is given as “inhibitory effect”.

With `N=C(NCCCCCCNC(=N)NC(=N)Nc1ccc(Cl)cc1)NC(=N)Nc1ccc(Cl)cc1.O=C(O)[C@H](O)[C@@H](O)[C@H](O)[C@H](O)CO.O=C(O)[C@H](O)[C@@H](O)[C@H](O)[C@H](O)CO` [CHG, chlorhexidine gluconate], the “log-reduction in MDR isolates” value in [10] is “greater than or equal to 99.99%”.
